The source of these data is patent US20080188490A1, “Acetylene Derivatives” (priority 2005, published 2008).

Each structure is given as a SMILES string. Where a name gives a salt, the structure may show the parent alone.

As a reminder, the melting point is the temperature of the solid-liquid transition.

The test system of data set [1] is stress-induced hyperthermia. In words: stress-induced hyperthermia in mice. Particulars: control hyperthermia 0.98±0.08° C. The format is in vivo. As for the experimental part:
A. Lecci et al., Psychopharmacol. 101, 255-261]. At doses of about 0.1 to about 30 mg/kg p.o., selected agents of the invention reverse the stress-induced hyperthermia.
With (±)-(1R,3R)-3-(4-Chloro-phenylamino)-1-(3-chloro-phenylethynyl)-cyclohexanol, a stress-induced hyperthermia of 0.98±0.08° C. was reduced to 0.66±0.06° C. at 1 mg/kg p.o., to […] at 3 mg/kg p.o.; to 0.58±0.06° C. at 10 mg/kg p.o. and to 0.33±0.04° C. at 30 mg/kg p.o. (p<0.05; p<0.0011; p<0.01; p<0.001 respectively).

For the next data set, the target named is T1, hmGluR5 (Homo sapiens, UniProt P41594).
T1 construct: expressed in transfected cells
T1 sequence (P41594 21-1180 isoform P41594-2 limits assumed): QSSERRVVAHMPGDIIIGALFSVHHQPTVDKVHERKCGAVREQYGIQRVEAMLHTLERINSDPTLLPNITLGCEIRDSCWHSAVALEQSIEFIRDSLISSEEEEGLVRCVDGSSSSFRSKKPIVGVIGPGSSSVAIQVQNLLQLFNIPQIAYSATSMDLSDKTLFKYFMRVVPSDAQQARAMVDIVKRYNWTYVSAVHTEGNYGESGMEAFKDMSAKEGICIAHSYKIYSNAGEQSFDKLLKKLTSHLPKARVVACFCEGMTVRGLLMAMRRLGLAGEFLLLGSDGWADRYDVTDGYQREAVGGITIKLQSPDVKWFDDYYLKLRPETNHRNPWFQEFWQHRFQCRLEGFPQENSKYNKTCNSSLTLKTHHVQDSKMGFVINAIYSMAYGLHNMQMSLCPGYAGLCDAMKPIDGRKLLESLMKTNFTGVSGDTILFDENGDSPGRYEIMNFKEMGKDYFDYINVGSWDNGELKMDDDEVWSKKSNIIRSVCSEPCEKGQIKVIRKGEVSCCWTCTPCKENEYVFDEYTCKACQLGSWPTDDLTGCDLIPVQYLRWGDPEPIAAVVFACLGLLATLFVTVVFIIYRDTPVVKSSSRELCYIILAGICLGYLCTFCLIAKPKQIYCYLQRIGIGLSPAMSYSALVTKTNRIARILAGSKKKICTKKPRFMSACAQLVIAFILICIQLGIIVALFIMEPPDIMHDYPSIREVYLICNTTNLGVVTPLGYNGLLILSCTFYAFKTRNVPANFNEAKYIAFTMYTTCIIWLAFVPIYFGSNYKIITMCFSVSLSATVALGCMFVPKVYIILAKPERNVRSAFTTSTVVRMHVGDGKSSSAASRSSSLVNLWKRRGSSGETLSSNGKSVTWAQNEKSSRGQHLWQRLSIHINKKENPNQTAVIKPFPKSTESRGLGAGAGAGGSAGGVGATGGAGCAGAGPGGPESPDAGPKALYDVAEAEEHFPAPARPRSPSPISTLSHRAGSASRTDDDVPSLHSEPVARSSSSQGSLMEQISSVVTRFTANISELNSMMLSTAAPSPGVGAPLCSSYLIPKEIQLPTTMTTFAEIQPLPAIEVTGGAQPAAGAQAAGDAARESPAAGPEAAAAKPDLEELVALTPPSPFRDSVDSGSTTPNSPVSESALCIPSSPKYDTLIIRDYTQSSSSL
In words: inhibition of quisqualate-induced inositol phosphate turnover in hmGluR5 expressing cells. Format: cell-based. Particulars: agonist quisqualate, read-out: IC50 concentration, inhibition of quisqualate-induced inositol phosphate turnover. An excerpt: This can be determined in vitro for example at recombinant human metabotropic glutamate receptors, especially PLC-coupled subtypes thereof such as mGluR5, using different procedures like, for example, measurement of the inhibition of the agonist induced elevation of intracellular Ca^2+ concentration in accordance with L. P. Daggett et al., Neuropharm. Vol. 34, pages 871-886 (1995), P. J. Flor et al., J. Neurochem. Vol. 67, pages 58-63 (1996) or by determination to what extent the agonist induced elevation of the inositol phosphate turnover is inhibited as described by T. Knoepfel et al., Eur. J. Pharmacol. Vol. 288, pages 389-392 (1994), L. P. Daggett et al., Neuropharm. Vol. 67, pages 58-63 (1996) and references cited therein. Isolation and expression of human mGluR subtypes are described in U.S. Pat. No. 5,521,297. Selected agents of the invention show IC50 values for the inhibition of the agonist (e.g. glutamate or quisqualate) induced elevation of intracellular Ca2+ concentration or the agonist (e.g. glutamate or quisqualate) induced inositol phosphate turnover, measured in recombinant cells expressing hmGluR5a of about 1nM to about 50 μM.

`O[C@]1(C#Cc2cccc(Cl)c2)CCC[C@@H](Nc2ccc(Cl)cc2)C1` (racemic) (as salt: hydrochloride) [Example 1, (±)-(1R,3R)-3-(4-Chloro-phenylamino)-1-(3-chloro-phenylethynyl)-cyclohexanol] registered a melting point of 153 to 163 °C.

On to `O[C@]1(C#Cc2cccc(Cl)c2)CCC[C@@H](Nc2ccc(Cl)cc2)C1` (racemic) [Example 1, (±)-(1R,3R)-3-(4-Chloro-phenylamino)-1-(3-chloro-phenylethynyl)-cyclohexanol], for which the “stress-induced hyperthermia after treatment” value in data set [1] (1 mg/kg p.o., p<0.05) was found to be 0.66±0.06 °C; in data set [1] (3 mg/kg p.o., p<0.0011), 0.43±10 °C; in data set [1] (10 mg/kg p.o., p<0.01) it was 0.58±0.06 °C; in data set [1] (30 mg/kg p.o., p<0.001), 0.33±0.04 °C. In addition, the IC50 at hmGluR5 came out at 1600 nM.

`O[C@@]1(C#Cc2cccc(Cl)c2)CCC[C@H](Nc2cc(-c3ccco3)[nH]n2)C1` [Example 1.26, (1S,3S)-1-(3-Chloro-phenylethynyl)-3-(5-furan-2-yl-1H-pyrazol-3-ylamino)-cyclohexanol]: the melting point was in the range of 83 to 88 °C.

`O[C@]1(C#Cc2cccc(Cl)c2)CCC[C@@H](Nc2cc(-c3ccco3)[nH]n2)C1` [Example 1.27, (1R,3R)-1-(3-Chloro-phenylethynyl)-3-(5-furan-2-yl-1H-pyrazol-3-ylamino)-cyclohexanol] came in with a melting point of 78 to 85 °C.
